In patent US8952024B2, “Herbicidal pyrimidone derivatives” (E I du Pont de Nemours and Company, priority 2009, dated 2015):

Experiments:
Type in all cases: in vivo
[1] = test system: large crabgrass (Digitaria sanguinalis); test: Test B pre-/postemergence plant response
Procedure, shortened: (§1)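 Test compounds, formulated in a non-phytotoxic solvent mixture with surfactant, are applied to the soil surface (loam and sand blend) right after seeding, or sprayed over plants at the 1- to 4-leaf stage grown in peat moss/vermiculite medium. After 13 to 15 days under glasshouse conditions, each species is scored visually from 0 (no effect) to 100 (complete control) against controls.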

[2] = test system: yellow nutsedge (Cyperus esculentus); test: Test B pre-/postemergence plant response
Procedure, shortened: as §1

[3] = test system: goosegrass (Eleusine indica); test: Test B pre-/postemergence plant response
Procedure, shortened: as §1

[4] = test system: green foxtail (Setaria viridis); test: Test B pre-/postemergence plant response
Procedure, shortened: as §1

[5] = test system: morningglory (Ipomoea coccinea); test: Test B pre-/postemergence plant response
Procedure, shortened: as §1

[6] = test system: bermudagrass (Cynodon dactylon); test: Test B pre-/postemergence plant response
Procedure, shortened: as §1

[7] = test system: wild oat (Avena fatua); test: Test B pre-/postemergence plant response
Procedure, shortened: as §1

[8] = test system: cocklebur (Xanthium strumarium); test: Test B pre-/postemergence plant response
Procedure, shortened: as §1

[9] = test system: lambsquarters (Chenopodium album); test: Test B pre-/postemergence plant response
Procedure, shortened: as §1

[10] = test system: wheat (Triticum aestivum); test: Test B pre-/postemergence plant response
Procedure, shortened: as §1

[11] = test system: barnyardgrass (Echinochloa crus-galli); test: Test B flooded paddy test; settings: for Plant response rating, Barnyardgrass: Flood (flooded paddy test), 13 to 15 days
Procedure, shortened: (§2)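 Each compound is added to standing floodwater (3 cm above soil, maintained) in pots of 2-leaf-stage plants; greenhouse exposure lasts 13–15 d before visual comparison with controls on a 0–100 control scale.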

[12] = test system: umbrella sedge (Cyperus difformis); test: Test B flooded paddy test; settings: for Plant response rating, Sedge, Umbrella: Flood (flooded paddy test), 13 to 15 days
Procedure, shortened: as §2

[13] = 31 g ai/ha, postemergence, scale 0 to 100, 0 is no effect, 100 is complete control
[14] = 62 g ai/ha, postemergence, 0 is no effect, 100 is complete control, 13 to 15 days
[15] = Postemergence, 125 g ai/ha, visual rating after 13 to 15 days, scale 0 (no effect) to 100 (complete control)
[16] = Postemergence, 250 g ai/ha, scale 0 to 100 (0 no effect, 100 complete control)
[17] = 250 g ai/ha, flooded paddy test, visual rating on 0 to 100 scale (0 no effect, 100 complete control) after 13 to 15 days
[18] = 62 g ai/ha, scale of 0 to 100 where 0 is no effect and 100 is complete control
[19] = 125 g ai/ha, scale 0 to 100, 0 is no effect, 100 is complete control
[20] = Flood, 31 g ai/ha, scale 0 to 100 (0 no effect, 100 complete control)
[21] = 16 g ai/ha, Postemergence, 0 to 100 scale
[22] = Postemergence, 31 g ai/ha, 0 to 100 scale (0 no effect, 100 complete control)
[23] = Postemergence, 62 g ai/ha, scale 0 to 100 (0 no effect, 100 complete control)
[24] = Postemergence, 125 g ai/ha, scale 0 to 100 (0 no effect, 100 complete control)

## CC(C)CC(=O)OC1=C(C(=O)c2cnc(-c3ccccc3)n(-c3ccccc3)c2=O)C(=O)CCC1 [Compound 83]
[1]; [13]
  Plant response rating, Crabgrass, Large: 85
[1]; [14]
  Crabgrass, Large plant response rating (0 to 100 scale): 85
[1]; [15]
  Plant response rating, Crabgrass, Large: 95
[1]; [16]
  Plant response rating, Crabgrass, Large: 98
[2]; [13]
  Plant response rating, Nutsedge, Yellow: 10
[2]; [14]
  Nutsedge, Yellow plant response rating (0 to 100 scale): 20
[2]; [16]
  Plant response rating, Nutsedge, Yellow: 85
[3]; [13]
  Plant response rating, Goosegrass: 75
[3]; [14]
  Goosegrass plant response rating (0 to 100 scale): 80
[3]; [16]
  Plant response rating, Goosegrass: 95
[4]; [13]
  Plant response rating, Foxtail, Green: 90
[4]; [14]
  Foxtail, Green plant response rating (0 to 100 scale): 95
[4]; [16]
  Plant response rating, Foxtail, Green: 98
[5]; [13]
  Plant response rating, Morningglory: 70
[5]; [14]
  Morningglory plant response rating (0 to 100 scale): 75
[5]; [16]
  Plant response rating, Morningglory: 100
[6]; [13]
  Plant response rating, Bermudagrass: 75
[6]; [14]
  Bermudagrass plant response rating (0 to 100 scale): 75
[6]; [15]
  Plant response rating, Bermudagrass: 85
[6]; [16]
  Plant response rating, Bermudagrass: 90
[7]; [13]
  Plant response rating, Oat, Wild: 10
[7]; [14]
  Oat, Wild plant response rating (0 to 100 scale): 10
[7]; [16]
  Plant response rating, Oat, Wild: 10
[8]; [13]
  Plant response rating, Cocklebur: 75
[8]; [14]
  Cocklebur plant response rating (0 to 100 scale): 80
[8]; [15]
  Plant response rating, Cocklebur: 80
[8]; [16]
  Plant response rating, Cocklebur: 90
[9]; [13]
  Plant response rating, Lambsquarters: 95
[9]; [14]
  Lambsquarters plant response rating (0 to 100 scale): 98
[9]; [16]
  Plant response rating, Lambsquarters: 100
[10]; [13]
  Plant response rating, Wheat: 0
[10]; [14]
  Wheat plant response rating (0 to 100 scale): 0
[10]; [16]
  Plant response rating, Wheat: 0
[11]; [17]
  Plant response rating, Flood, Barnyardgrass: 40
[11]; [18]
  Plant response rating, Barnyardgrass: 0
[11]; [19]
  Plant response rating, Barnyardgrass: 15
[11]; [20]
  Barnyardgrass plant response rating: 0
[12]; [17]
  Plant response rating, Flood, Sedge, Umbrella: 50
[12]; [18]
  Plant response rating, Sedge, Umbrella: 30
[12]; [19]
  Plant response rating, Sedge, Umbrella: 40
[12]; [20]
  Sedge, Umbrella plant response rating: 0

## CC1(C)CC(=O)C(C(=O)c2cnc(-c3ccccc3)n(-c3ccccc3)c2=O)=C(O)C1 [Compound 225]
[1]; [21]
  Plant response rating, Crabgrass, Large: 70
[1]; [22]
  Plant response rating, Crabgrass, Large: 75
[1]; [23]
  Plant response rating, Crabgrass, Large: 85
[1]; [24]
  Plant response rating, Crabgrass, Large: 95
[2]; [21]
  Plant response rating, Nutsedge, Yellow: 5
[2]; [22]
  Plant response rating, Nutsedge, Yellow: 10
[2]; [23]
  Plant response rating, Nutsedge, Yellow: 25
[2]; [24]
  Plant response rating, Nutsedge, Yellow: 25
[3]; [21]
  Plant response rating, Goosegrass: 80
[3]; [22]
  Plant response rating, Goosegrass: 85
[3]; [23]
  Plant response rating, Goosegrass: 90
[3]; [24]
  Plant response rating, Goosegrass: 95
[4]; [21]
  Plant response rating, Foxtail, Green: 85
[4]; [22]
  Plant response rating, Foxtail, Green: 85
[4]; [23]
  Plant response rating, Foxtail, Green: 98
[4]; [24]
  Plant response rating, Foxtail, Green: 98
[5]; [21]
  Plant response rating, Morningglory: 80
[5]; [22]
  Plant response rating, Morningglory: 95
[5]; [23]
  Plant response rating, Morningglory: 95
[5]; [24]
  Plant response rating, Morningglory: 95
[6]; [21]
  Plant response rating, Bermudagrass: 40
[6]; [22]
  Plant response rating, Bermudagrass: 80
[6]; [23]
  Plant response rating, Bermudagrass: 85
[6]; [24]
  Plant response rating, Bermudagrass: 85
[7]; [21]
  Plant response rating, Oat, Wild: 25
[7]; [22]
  Plant response rating, Oat, Wild: 45
[7]; [23]
  Plant response rating, Oat, Wild: 50
[8]; [21]
  Plant response rating, Cocklebur: 85
[8]; [22]
  Plant response rating, Cocklebur: 98
[8]; [23]
  Plant response rating, Cocklebur: 100
[8]; [24]
  Plant response rating, Cocklebur: 100
[9]; [21]
  Plant response rating, Lambsquarters: 85
[9]; [22]
  Plant response rating, Lambsquarters: 85
[9]; [23]
  Plant response rating, Lambsquarters: 85
[9]; [24]
  Plant response rating, Lambsquarters: 98
[10]; [21]
  Plant response rating, Wheat: 20
[10]; [22]
  Plant response rating, Wheat: 30
[10]; [23]
  Plant response rating, Wheat: 40
